According to patent US11007182B2, “Use of atpenin to activate innate immunity” (Health Research, Inc., priority 2015, dated 2021):

Columns and labels:
Type in all cases: cell-based, human
HIF1α [1] = assay: HIF1α stabilization (immunoblotting) in CD14 negative lymphocytes and CD14 positive monocytes; settings: FIG. 5
Text: FIG. 5. HIF1α is stabilized in CD14 negative lymphocytes, but not in CD14 positive monocytes in hypoxia (H, 1% O2, day 1). […] CD14± cells are unsorted PBMCs.
(§1) We used primary human monocytes and 293T HEK cells to investigate their response to hypoxia and to cell-permeable complex II inhibitors (atpenin A5, TTFA) using cell culture methods, high throughout RNA sequencing, qPCR, immunoblotting and oxygen consumption assays.

[2] = tested on: APOBEC3A-mediated RNA editing; assay: SDHB c.136C>U site-specific RNA editing assay (RT-PCR) in monocyte-enriched PBMCs; settings: for effect on hypoxia-induced RNA editing: hypoxia 1% O2; for effect on hypoxia-induced RNA editing / induction of APOBEC3A-mediated RNA editing in normoxia: atpenin A5 1-3 μM, DMOG 1 mM, myxothiazol 1 μM; for induction of APOBEC3A-mediated RNA editing in normoxia: TTFA 1 mM
Experimental: Peripheral blood mononuclear cells of anonymous platelet donors were isolated from peripheral blood in Trima Accel™ leukoreduction system chambers (Terumo BCT®, Lakewood, Colo.) after thrombocytapheresis, in accordance with a protocol approved by the institutional review board of Roswell Park Cancer Institute. A density gradient centrifugation method using polysucrose-containing Lymphocyte Separation Medium (Mediatech®, Manassas, Va.) was used for PBMC isolation. MEPs were prepared from PBMCs using the well-established cold aggregation method with slight modification (Mentzer et al 1986). Briefly, PBMCs were subjected to gentle rocking at 4° C. for an hour and aggregated cells that sedimented through fetal bovine serum (FBS; VWR®, Radnor, Pa.) were collected as MEPs (monocyte-enriched PBMCs) after 0.5-3 hours for high monocyte enrichment (˜70% monocytes as assessed by immunofluorocytometry for CD14), or after 8-16 hours for mild enrichment (˜20%-40% monocytes). MEPs were cultured at a density of at least 20 million per ml in 1 or 2 ml per well of 6- or 12-well standard tissue culture plates under 5% CO2 in RPMI-1640 medium (Mediatech®) with 10% FBS, and 100 U per ml penicillin and 100 μg per ml streptomycin (Mediatech®). CD14 positive monocytes were separated in certain experiments from MEPs that were initially cultured for 1 or 2 days using magnetic beads and donut-shaped magnet (EasySep cell isolation kit purchased from STEMCELL Technologies).
For hypoxia, cells were cultured under 1% O2, 5% CO2 and 94% N2 in an XVIVO SYSTEM® (a cell culture system) (Biospherix®, Lacona, N.Y.). ‘Universal’ type I IFN, a hybrid of N-terminal IFNα-2 and C-terminal IFNα-1, produced in E. coli were obtained from PBL Assay Science® (Piscataway, N.J.), and respectively used at 300 U per ml. Unless noted otherwise, hypoxia and/or interferon treatments were for 24 hours. Differential viability of MEPs after 1-day culture in normoxia versus hypoxia was not observed as evaluated by Trypan blue stain.
SDHB c.136C>U site-specific RNA editing, catalyzed by APOBEC3A cytidine deaminase, was quantified by RT-PCR as described (Baysal et al 2013). Total RNA, genomic DNA and plasmid DNA were isolated using material and methods provided with TRIzol™, DNA Wizard Genomic DNA Purification Kit (Promega®), and Plasmid Kit (Qiagen®, Germantown, Md.), respectively. RNA/DNA was quantified by spectrophotometry on a Nanodrop™ 2000 instrument (Thermo Fisher®). Proteins were quantified using Bio-Rad® Dc™ assay with bovine serum albumin standards. Statistical tests were two-tailed and were performed using R 3.0, Excel™ 2010 (Microsoft®, Redmond, Wash.), or Prism™ 6.0 (GraphPad®, San Diego, Calif.) software.
Atpenin A5 is purchased from Cayman Chemical (CAS 119509-24-9), dissolved in DMSO and used in final concentrations of 1-3 μM in culture. DMOG (dimethyloxalylglycine; CAS 89464-63-1) and myxothiazol (CAS 76706-55-3) are purchased from Sigma-Aldrich, dissolved in DMSO and used in final concentrations of 1 mM and 1 μM, respectively.

monocyte-enriched PBMCs = assay: Oxygen consumption assay (oxygen-quenched fluorescent dye) in monocyte-enriched PBMCs; settings: averages from 3 donors' monocyte-enriched PBMCs
Experimental: (§2) FIG. 6. Inhibition of complex II reduces oxygen consumption and antagonizes HIF-1. […] DMSO indicates the untreated vehicle control. […] The oxygen levels are measured by a fluorescent dye, which is quenched by oxygen (i.e., more fluorescence, less oxygen). Results are averages from 3 donors' monocyte-enriched PBMCs with SEMs shown in dashed lines.
as §1

[3] = tested on: hypoxia-related gene expression in monocytes; assay: RNA seq and RT-qPCR of hypoxic gene expression in monocytes
Text: FIG. 4. AtA5 treatment in normoxia induces hypoxic gene expression in monocytes.
as §1
On the contrary, AtA5 reduces cellular oxygen consumption in peripheral blood mononuclear cells and inhibits HIF-la stabilization in mildly hypoxic conditions in 293T cells (FIG. 6).

HIF1α [4] = assay: HIF1α stabilization (immunoblotting) in 293T cells; settings: for HIF1α stabilization in mild hypoxia: 6% O2
Experimental: as §2, §1

Molecule	HIF1α stabilization in normoxia in lymphocytes and monocytes (HIF1α [1])	effect on hypoxia-induced RNA editing ([2]; MEPs)	induction of APOBEC3A-mediated RNA editing in normoxia ([2]; normoxia, MEPs)	oxygen consumption relative to control cells (monocyte-enriched PBMCs)	HIF1α stabilization in mild hypoxia (HIF1α [4]; 293T cells, day 1)	also measured
COC(=O)CNC(=O)C(=O)OC [DMOG, dimethyloxalylglycine]	stabilizes HIF1α in both lymphocytes and monocytes	inhibited hypoxia-induced RNA editing	did not induce RNA editing in normoxia	–	–	–
COc1[nH]c(=O)c(C(=O)[C@@H](C)C[C@H](C)[C@@H](Cl)CCl)c(O)c1OC [atpenin A5]	does not stabilize HIF1α in normoxia in lymphocytes or monocytes	without inhibiting the hypoxia-induced RNA editing	induced APOBEC3A-mediated RNA editing in normoxia	reduces oxygen consumption relative to control cells (blue), but does not abolish it	inhibits HIF1α stabilization in mild hypoxia	effect on A3A-mediated RNA editing or transcript induction in hypoxic monocytes ([3]; hypoxic monocytes): does not inhibit A3A-mediated RNA editing or transcript induction in hypoxic monocytes; expression of hypoxia-related and pro-angiogenic genes (RT-qPCR) ([3]; normoxic treatment of monocytes): causes upregulation of many hypoxia-related and pro-angiogenic genes including VEGFA, CXCL8 (IL8) and CXCR4; transcriptome-scale changes (RNA seq and RNA editing analyses) ([3]; normoxic treatment of monocytes, FIG. 4): closely mimics the hypoxia effects in inducing transcriptome-scale changes; HIF-1α stabilization in normoxia in 293T cells (HIF1α [4]; normoxic treatment, 293T embryonic kidney cells, FIG. 6): does not stabilize HIF-la; cell population in which induced RNA editing occurs ([2]; CD14 positive and CD14 negative cells separated from MEPs after culture): induced RNA editing occurs in CD14+ monocytes; RNA editing levels induced in normoxia relative to hypoxic stimulation ([2]; normoxia versus hypoxia, FIG. 1): comparable to levels observed upon hypoxic stimulation; effect on RNA editing in combination with interferon ([2]; normoxia, MEPs, type I IFN 300 U per ml): synergistic effect with interferon-induced RNA editing levels; monocyte-enriched PBMCs from donors (biological replicates) with normoxic induction of RNA editing ([2]; normoxia, p=0.00013, two-sided Wilcoxon pairwise test): 19 of 19
antimycin A	–	–	–	completely inhibit oxygen consumption	–	–
O=C(CC(=O)C(F)(F)F)c1cccs1 [TTFA, thenoyltrifluoroacetone]	–	–	induces RNA editing in normoxia	–	–	–
CO/C(=C/C(N)=O)[C@H](C)[C@H](/C=C/c1csc(-c2csc([C@@H](C)/C=C/C=C/C(C)C)n2)n1)OC [myxothiazol]	–	inhibited hypoxia-induced RNA editing	did not induce RNA editing in normoxia	completely inhibit oxygen consumption	inhibits it both in mild and severe hypoxia	HIF1α stabilization in severe hypoxia (HIF1α [4]; 1% O2, 293T cells, day 1): inhibits it both in mild and severe hypoxia
